A value given as a limit tells only on which side of the number the result lay.

In the assay the test system is DU145 cells. Nature of the assay: Antiproliferative activity on DU-145 in complete medium (WST-1). The format is cell-based. The settings on record: Homo sapiens, 144 h incubation, read-out: IC50 on the DU145 cells in culture (concentration inhibiting cell proliferation by 50%). As for the experimental part:
The anti-proliferative activity of the compounds of the present invention is determined on DU-145 in complete medium.
Maintenance of the DU-145 line is carried out in DMEM, 10% of foetal calf serum, 2 mM of glutamine, 100 U/ml of penicillin, 0.1 mg/ml of streptomycin. • Seeding the plates: • The DU145 line is seeded at 400 or 800 cells/well in 90 μl of DMEM complete medium in 96-well plates (TPP). • Treatment of the cells: 24 h after the seeding, the cells are treated with 10 μl/well of compound diluted in the culture medium. Experiments showing the dose-effect of the compound are carried out on a scale of 1 nM to 100 μM. The concentrations used are the following: 1 nM/10/30/100/300/1000/3000/10,000/100,000 nM. The cells are incubated for 144 h at 37° C., 5% CO2. • Reading: On D6, 10 μL, of cell proliferation reagent WST-1 (Roche ref 1644807) is added to each well. After incubation for 2 to 4 hours at 37° C., 5% CO2, the absorbance at 450 nm is measured by spectrophotometry (Envision, Perkin Elmer). • Results: The experiments are carried out in duplicate and the best compounds are tested twice. […] 4. Measurement of the Disappearance of the Androgen Receptor
For `CC1(C)C(=O)N(c2ccc(N)c(C(F)(F)F)c2)C(=O)N1CCCCCCCCCSCCCC(F)(F)C(F)(F)F` [Example 16, 3-[4-amino-3-(trifluoromethyl)phenyl]-5,5-dimethyl-1-{9-[(4,4,5,5,5-pentafluoropentyl)thio]nonyl}imidazolidine-2,4-dione], the IC50 is over 10 µM.

With `CC1(C)C(=O)N(c2ccc([N+](=O)[O-])c(C(F)(F)F)c2)C(=O)N1CCCCCCCCCSCCC(F)(F)C(F)(F)C(F)(F)C(F)(F)F` [Example 14, 5,5-dimethyl-3-[4-nitro-3-(trifluoromethyl)phenyl]-1-{9-[(3,3,4,4,5,5,6,6,6-nonafluorohexyl)thio]nonyl}imidazolidine-2,4-dione], the IC50 is over 10 µM.

As to `CC1(C)C(=O)N(c2ccc([N+](=O)[O-])c(C(F)(F)F)c2)C(=O)N1CCCCCCCCC[S+]([O-])CCCC(F)(F)C(F)(F)F` (stereo not shown) [Example 2, 5,5-dimethyl-3-[4-nitro-3-(trifluoromethyl)phenyl]-1-{9-[(4,4,5,5,5-pentafluoropentyl)sulphinyl]nonyl}imidazolidine-2,4-dione], the IC50 is over 10 µM.

As for `CC1(C)C(=O)N(c2ccc([N+](=O)[O-])cc2C(F)(F)F)C(=O)N1CCCCCCCCC[S+]([O-])CCCC(F)(F)C(F)(F)F` (stereo not shown) [Example 35, 5,5-dimethyl-3-[4-nitro-2-(trifluoromethyl)phenyl]-1-{9-[(4,4,5,5,5-pentafluoropentyl)sulphinyl]nonyl}imidazolidine-2,4-dione], the IC50 is over 10 µM.

For the compound `CC(=O)Nc1ccc(N2C(=O)N(CCOCCOCC[S+]([O-])CCCC(F)(F)C(F)(F)F)C(C)(C)C2=O)cc1C(F)(F)F` (stereo not shown) [Example 39, N-[4-{4,4-dimethyl-2,5-dioxo-3-[2-(2-{2-[(4,4,5,5,5-pentafluoropentyl)sulphinyl]ethoxy}ethoxy)ethyl]imidazolidin-1-yl}-2-(trifluoromethyl)phenyl]acetamide], the IC50 is over 10 µM.

Regarding `CC1(C)C(=O)N(c2ccc([N+](=O)[O-])c(C(F)(F)F)c2)C(=O)N1CCCCCCCCCCSCCCC(F)(F)C(F)(F)F` [Example 8, 5,5-dimethyl-3-[4-nitro-3-(trifluoromethyl)phenyl]-1-{10-[(4,4,5,5,5-pentafluoropentyl)thio]decyl}imidazolidine-2,4-dione], the IC50 was over 10 µM.

For the compound `CC1(C)C(=O)N(c2ccc([N+](=O)[O-])c(C(F)(F)F)c2)C(=O)N1CCOCCOCCSCCCC(F)(F)C(F)(F)F` [Example 36, 5,5-dimethyl-3-[4-nitro-3-(trifluoromethyl)phenyl]-1-[2-(2-{2-[(4,4,5,5,5-pentafluoropentyl)sulphanyl]ethoxy}ethoxy)ethyl]imidazolidine-2,4-dione], the IC50 was over 10 µM.

Consider `CC1(C)C(=O)N(c2ccc([N+](=O)[O-])c(C(F)(F)F)c2)C(=O)N1CCCCCCCCC/S(CCCC(F)(F)C(F)(F)F)=N/C(=O)C(F)(F)F` (stereo not shown) [Example 44, N-[(1Z)-(9-{5,5-dimethyl-3-[4-nitro-3-(trifluoromethyl)phenyl]-2,4-dioxoimidazolidin-1-yl}nonyl)(4,4,5,5,5-pentafluoropentyl)-λ^4-sulphanylidene]-2,2,2-trifluoroacetamide], for which the IC50 was over 10 µM.

Regarding `CC1(C)C(=O)N(c2ccc([N+](=O)[O-])c(C(F)(F)F)c2)C(=O)N1CCCCCCCCCC[S+]([O-])CCCC(F)(F)C(F)(F)F` (stereo not shown) [Example 9, 5,5-dimethyl-3-[4-nitro-3-(trifluoromethyl)phenyl]-1-{10-[(4,4,5,5,5-pentafluoropentyl)sulphinyl]decyl}imidazolidine-2,4-dione], the IC50 is over 10 µM.

In the case of `CC(=O)Nc1ccc(N2C(=O)N(CCOCCOCCSCCCC(F)(F)C(F)(F)F)C(C)(C)C2=O)cc1C(F)(F)F` [Example 38, N-[4-{4,4-dimethyl-2,5-dioxo-3-[2-(2-{2-[(4,4,5,5,5-pentafluoropentyl)sulphanyl]ethoxy}ethoxy)ethyl]imidazolidin-1-yl}-2-(trifluoromethyl)phenyl]acetamide], the IC50 is over 10 µM.

These data come from US8710091B2, “Imidazolidine-2,4-dione derivatives, and use thereof as a cancer drug” (Ipsen Pharma S.A.S., priority 2009, dated 2014).
